From US6599893B2, “Cephalosporin antibiotics and prodrugs thereof” (Essential Therapeutics, Inc., priority 2000, dated 2003)
Values after ≈ are worked out from the molar mass of the structure shown.

Experiments:
Type in all cases: cell-based
[1] = system: Staphylococcus aureus 76 (MRSA, β-lactamase producing); experiment: Broth microdilution MIC, S. aureus 76; conditions: Staphylococcus aureus 76 (MRSA, β-lactamase producing); for MIC: read-out: MIC S. a. 76
Description: (§1) Compounds were evaluated for antimicrobial activity against a panel of bacterial strains using a broth microdilution assay performed as recommended by the NCCLS (NCCLS (National Committee for Clinical Laboratory Standards). 1993. Methods for dilution antimicrobial susceptibility tests for bacteria that grow aerobically. NCCLS Document M7-A3, 1993. In: NCCLS Antimicrobial Susceptibility Testing, 3rd Ed.)
(§2) The minimum inhibitory concentration (MIC) is defined as the lowest concentration of a compound that prevents the growth of the bacteria.

[2] = system: Enterococcus faecium ATCC 35667; experiment: Broth microdilution MIC, E. faecium ATCC 35667; conditions: Enterococcus faecium ATCC 35667; for MIC: ATCC35667, read-out: MIC E. f. 35667
Description: as §1, §2

[3] = system: Staphylococcus aureus COL (MRSA, non-β-lactamase producing); experiment: Broth microdilution MIC, S. aureus COL; conditions: Staphylococcus aureus COL (MRSA, non-β-lactamase producing); for MIC: read-out: MIC S. a. COL
Description: as §1, §2

[4] = system: Enterococcus faecalis ATCC 29212; experiment: Broth microdilution MIC, E. faecalis ATCC 29212; conditions: Enterococcus faecalis ATCC 29212; for MIC: ATCC29212, read-out: MIC E. f. 29212
Description: as §1, §2

[5] = system: Staphylococcus aureus ATCC 29213 (MSSA); experiment: Broth microdilution MIC, S. aureus ATCC 29213; conditions: Staphylococcus aureus ATCC 29213 (MSSA); for MIC: read-out: MIC S. a. 29213
Description: as §1, §2

SMILES | MIC S. a. 76 [1] [µg/mL] | MIC E. f. 35667 [2] [µg/mL] | MIC S. a. COL [3] [µg/mL] | MIC E. f. 29212 [4] [µg/mL] | MIC S. a. 29213 [5] [µg/mL] | MIC [1] [µg/mL] | MIC [2] [µg/mL] | MIC [3] [µg/mL] | MIC [4] [µg/mL] | MIC [5] [µg/mL]
N#Cc1ccccc1SC1=C(C(=O)O)N2C(=O)[C@@H](NC(=O)/C(=N\OC3CCCC3)c3csc(N)n3)[C@H]2SC1 [Compound 12] | 8 (≈ 14 µM) | 8 (≈ 14 µM) | 4 (≈ 7.01 µM) | 8 (≈ 14 µM) | 1 (≈ 1.75 µM) |  |  |  |  | 
Nc1nc(/C(=N/OCCF)C(=O)N[C@@H]2C(=O)N3C(C(=O)O)=C(Sc4ccnn4-c4ccccc4)CS[C@H]23)cs1 [Compound 14] |  |  |  |  |  | 16 (≈ 27.1 µM) | 16 (≈ 27.1 µM) | 8 (≈ 13.6 µM) | 32 (≈ 54.3 µM) | 1 (≈ 1.7 µM)
CSc1nnc(SC2=C(C(=O)O)N3C(=O)[C@@H](NC(=O)C(=NO)c4nc(N)sc4Cl)C3SC2)s1 (stereo partly drawn) [Compound 44, (7R)-7-[2-(2-Amino-5-chlorothiazol-4-yl)-2-hydroxyiminoacetylamino]-3-(5-methylsulfanyl-[1,3,4]thiadiazol-2-ylsulfanyl)-8-oxo-5-thia-1-aza-bicyclo[4.2.0]oct-2-ene-2-carboxylic acid] |  |  |  |  |  | 1 (≈ 1.77 µM) | 1 (≈ 1.77 µM) | 1 (≈ 1.77 µM) | 0.25 (≈ 0.442 µM) | 0.25 (≈ 0.442 µM)
Nc1nc(C(=NO)C(=O)N[C@@H]2C(=O)N3C(C(=O)O)=C(Sc4nnco4)CSC23)c(Cl)s1 (stereo partly drawn) [Compound 48, (7R)-7-[2-(2-Amino-5-chlorothiazol-4-yl)-2-hydroxyiminoacetylamino]-3-([1,3,4]oxadiazol-2-ylsulfanyl)-8-oxo-5-thia-1-aza-bicyclo[4.2.0]oct-2-ene-2-carboxylic acid] |  |  |  |  |  | 2 (≈ 3.97 µM) | 1 (≈ 1.98 µM) | 2 (≈ 3.97 µM) | 0.25 (≈ 0.496 µM) | 0.25 (≈ 0.496 µM)
Nc1nc(C(=NO)C(=O)N[C@@H]2C(=O)N3C(C(=O)O)=C(Sc4nnc(N)s4)CSC23)cs1 (stereo partly drawn) [Compound 49, 3-(5-Amino-[1,3,4]thiadiazol-2-ylsulfanyl)-(7R)-7-[2-(2-aminothiazol-4-yl)-2-hydroxyiminoacetylamino]-8-oxo-5-thia-1-aza-bicyclo[4.2.0]oct-2-ene-2-carboxylic acid] |  |  |  |  |  | 8 (≈ 16 µM) | 1 (≈ 2 µM) | 4 (≈ 7.99 µM) | 0.5 (≈ 0.999 µM) | 0.25 (≈ 0.499 µM)

Second part, the compound after the results:

MIC S. a. 76 [1] [µg/mL] | MIC E. f. 35667 [2] [µg/mL] | MIC S. a. COL [3] [µg/mL] | MIC E. f. 29212 [4] [µg/mL] | MIC S. a. 29213 [5] [µg/mL] | MIC [1] [µg/mL] | MIC [2] [µg/mL] | MIC [3] [µg/mL] | MIC [4] [µg/mL] | MIC [5] [µg/mL] | SMILES
16 (≈ 28 µM) | 32 (≈ 56.1 µM) | 16 (≈ 28 µM) | >32 | 0.5 (≈ 0.876 µM) |  |  |  |  |  | CON=C(C(=O)NC1C(=O)N2C(C(=O)O)=C(Sc3ccccc3Br)CSC12)c1csc(N)n1 (stereo not drawn) [Compound 5]
32 (≈ 56.1 µM) | 16 (≈ 28 µM) |  | 16 (≈ 28 µM) | <0.015 |  |  |  |  |  | CON=C(C(=O)NC1C(=O)N2C(C(=O)O)=C(Sc3ccc(Br)cc3)CSC12)c1csc(N)n1 (stereo not drawn) [Compound 6]
4 (≈ 6.63 µM) | 2 (≈ 3.31 µM) | 2 (≈ 3.31 µM) |  | <0.25 |  |  |  |  |  | Nc1nc(C(=NO)C(=O)NC2C(=O)N3C(C(=O)O)=C(Sc4ccccc4I)CSC23)cs1 (stereo not drawn) [Compound 7]
32 (≈ 51.8 µM) | 32 (≈ 51.8 µM) | 32 (≈ 51.8 µM) |  | 1 (≈ 1.62 µM) |  |  |  |  |  | CON=C(C(=O)NC1C(=O)N2C(C(=O)O)=C(Sc3ccccc3I)CSC12)c1csc(N)n1 (stereo not drawn) [Compound 8]
2 (≈ 2.98 µM) | 2 (≈ 2.98 µM) | 1 (≈ 1.49 µM) | 2 (≈ 2.98 µM) | <0.25 |  |  |  |  |  | Nc1nc(/C(=N/OC2CCCC2)C(=O)N[C@@H]2C(=O)N3C(C(=O)O)=C(Sc4ccccc4I)CS[C@H]23)cs1 [Compound 9]
8 (≈ 14.4 µM) | 2 (≈ 3.61 µM) | 4 (≈ 7.22 µM) | 2 (≈ 3.61 µM) | 0.5 (≈ 0.903 µM) |  |  |  |  |  | Nc1nc(C(=NO)C(=O)NC2C(=O)N3C(C(=O)O)=C(Sc4ccccc4-c4ccccc4)CSC23)cs1 (stereo not drawn) [Compound 10]
 |  |  |  |  | 32 (≈ 58.9 µM) | 8 (≈ 14.7 µM) | 16 (≈ 29.4 µM) | 2 (≈ 3.68 µM) | 1 (≈ 1.84 µM) | Nc1nc(/C(=N/O)C(=O)N[C@@H]2C(=O)N3C(C(=O)O)=C(Sc4ccnn4-c4ccccc4)CS[C@H]23)cs1 [Compound 15]
